Tests used:
[1] = tested on: vascular smooth muscle, AII response (rabbit aortic rings); test: Assay B: In Vitro Vascular Smooth Muscle Response for AII (rabbit aortic rings); type: cell-based, rabbit (male New Zealand white); conditions: Oryctolagus cuniculus, 5 min, antagonist 10^-5 M, three rabbits, read-out: Assay B PA2 (converted)
Experimental: Compound of Example #5 was tested for AII antagonist activity in rabbit aortic rings. Male New Zealand white rabbits (2-2.5 kg) were sacrificed using an overdose of pentobarbital and exsanguinated via the carotid arteries. The thoracic aorta was removed, cleaned of adherent fat and connective tissue and then cut into 3-mm ring segments. The endothelium was removed from the rings by gently sliding a rolled-up piece of filter paper into the vessel lumen. The rings were then mounted in a water-jacketed tissue bath, maintained at 37° C., between moveable and fixed ends of a stainless steel wire with the moveable end attached to an FT03 Grass transducer coupled to a Model 7D Grass Polygraph for recording isometric force responses. The bath was filled with 20 ml of oxygenated (95% oxygen/5% carbon dioxide) Krebs solution of the following composition […]: 130 NaCl, 15 NaHCO3, 15 KCl, 1.2 NaH2 PO4, 1.2 MgSO4, 2.5 CaCl2, and 11.4 glucose. The preparations were equilibrated for one hour before approximately one gram of passive tension was placed on the rings. Angiotensin II concentration-response curves were then recorded (3×10^-10 to 1×10^-5 M). […] The effectiveness of the test compound was expressed in terms of pA2 values and were calculated according to H. O. Schild [Br. J. Pharmacol. Chemother., 189-206 (1947)]. […] The test compound was evaluated in aorta rings from three rabbits.

[2] = target: smooth muscle angiotensin II receptor; test: Assay A: Angiotensin II Binding Activity; conditions: rat uterine membranes, 25° C., 60 min; read-out: Assay A IC50 (50% displacement of specifically bound 125I-AII)
Experimental: Other chemicals were obtained from Sigma Chemical Co. This assay was carried out according to the method of Douglas et al [Endocrinology, 106, 120-124 (1980)]. Rat uterine membranes were prepared from fresh tissue. All procedures were carried out at 4° C. Uteri were stripped of fat and homogenized in phosphate-buffered saline at pH 7.4 containing 5 mM EDTA. The homogenate was centrifuged at 1500×g for 20 min., and the supernatant was recentrifuged at 100,000×g for 60 min. The pellet was resuspended in buffer consisting of 2 mM EDTA and 50 mM Tris-HCl (pH 7.5) to a final protein concentration of 4 mg/ml. […] The reaction was initiated by the addition of membrane protein and the mixture was incubated at 25° C. for 60 min. The incubation was terminated with ice-cold 50 mM Tris-HCl (pH 7.5) and the mixture was filtered to separate membrane-bound labelled peptide from the free ligand. The incubation tube and filter were washed with ice-cold buffer. Filters were assayed for radioactivity in a Micromedic gamma counter. Nonspecific binding was defined as binding in the presence of 10 μM of unlabelled AII. Specific binding was calculated as total binding minus nonspecific binding. […] Binding data were analyzed by a nonlinear least-squares curve fitting program.

AII receptor = test: Assay C: In Vivo Intraduodenal Pressor Assay Response for AII Antagonists; design: species or system male Sprague-Dawley rats
Experimental: The in vivo AII receptor antagonist activity of Example #5 compound was examined in ganglion-blocked male Sprague-Dawley rats (Harlan Sprague-Dawley, Inc.), weighing 300-400 g, anesthetized with 100 mg/kg i.p. Inactin. Catheters (PE-50) were implanted in a femoral artery and vein to measure mean arterial pressure and to administer compounds, respectively. A tracheal catheter maintained airway patency. For intravenous experiments, autonomic neurotransmission was blocked by treatment with mecamylamine (3 mg/kg i.v.) and atropine (400 μg/kg i.v.). AII (30 ng/kg i.v., 20-25 μl volume) was administered four times at 10 minute intervals to establish a reproducible control pressor response. Example #5 compound was then administered at 1, 3 and 10 mg/kg in separate groups of rats as an intravenous bolus (0.2 ml volume) before rechallenging with AII (30 ng/kg, 20-25 μl volume) for the following 2 hours. For intraduodenal experiments, rats were anesthetized as above, but ganglion blockade was not performed. AII was administered at 100 ng/kg i.v. (20-25 μl volume), and was administered at 10, 30 and 100 mg/kg in separate groups of rats as an intraduodenal bolus (0.2 ml volume). […] The response to AII was calculated as percent of the control response and then the percent inhibition was calculated as 100 minus the percent control response. Duration of action of a test compound was defined as the time from peak percent inhibition to 50% of peak. The test compound was tested in two rats and the values for the two rats were averaged.

IC50 [2]: 216 ± 45 nM
SMILES: CCCCc1nc(Cl)c(CO)n1Cc1ccc(-c2ccccc2C(=O)O)cc1 [Example 5]
Kb [1]: 74.1 nM
% Control of AII Pressor Response (AII receptor; 10 mg/kg intraduodenal, 1 min): 100%
% Control of AII Pressor Response (AII receptor; 10 mg/kg intraduodenal, 5 min): 94%
% Control of AII Pressor Response (AII receptor; 10 mg/kg intraduodenal, 10 min): 99%
% Control of AII Pressor Response (AII receptor; 10 mg/kg intraduodenal, 20 min): 85%
% Control of AII Pressor Response (AII receptor; 10 mg/kg intraduodenal, 30 min): 91%
% Control of AII Pressor Response (AII receptor; 10 mg/kg intraduodenal, 40 min): 91%
% Control of AII Pressor Response (AII receptor; 10 mg/kg intraduodenal, 50 min): 95%
% Control of AII Pressor Response (AII receptor; 10 mg/kg intraduodenal, 60 min): 93%
% Control of AII Pressor Response (AII receptor; 10 mg/kg intraduodenal, 75 min): 95%
% Control of AII Pressor Response (AII receptor; 30 mg/kg intraduodenal, 1 min): 48%
% Control of AII Pressor Response (AII receptor; 30 mg/kg intraduodenal, 5 min): 48%
% Control of AII Pressor Response (AII receptor; 30 mg/kg intraduodenal, 10 min): 44%
% Control of AII Pressor Response (AII receptor; 30 mg/kg intraduodenal, 20 min): 28%
% Control of AII Pressor Response (AII receptor; 30 mg/kg intraduodenal, 30 min): 34%
% Control of AII Pressor Response (AII receptor; 30 mg/kg intraduodenal, 40 min): 42%
% Control of AII Pressor Response (AII receptor; 30 mg/kg intraduodenal, 50 min): 41%
% Control of AII Pressor Response (AII receptor; 30 mg/kg intraduodenal, 60 min): 53%
% Control of AII Pressor Response (AII receptor; 30 mg/kg intraduodenal, 75 min): 74%
% Control of AII Pressor Response (AII receptor; 100 mg/kg intraduodenal, 1 min): 28%
% Control of AII Pressor Response (AII receptor; 100 mg/kg intraduodenal, 5 min): 19%
% Control of AII Pressor Response (AII receptor; 100 mg/kg intraduodenal, 10 min): 15%
% Control of AII Pressor Response (AII receptor; 100 mg/kg intraduodenal, 20 min): 14%
% Control of AII Pressor Response (AII receptor; 100 mg/kg intraduodenal, 30 min): 9%
% Control of AII Pressor Response (AII receptor; 100 mg/kg intraduodenal, 40 min): 5%
% Control of AII Pressor Response (AII receptor; 100 mg/kg intraduodenal, 50 min): 13%
% Control of AII Pressor Response (AII receptor; 100 mg/kg intraduodenal, 60 min): 10%
% Control of AII Pressor Response (AII receptor; 100 mg/kg intraduodenal, 75 min): 13%

— patent US5302610A, “Renal-selective biphenylmethyl imidazole angiotensin II antagonists for treatment of hypertension” (G. D. Searle & Co., priority 1991, dated 1994)
